Laboratory results as given in the SangsterLogP compilation.

Columns and labels:
[1] = method code SF-AS, from DOI: 10.1002/qsar.200430865; details: pH 3.5
[2] = pH 3.5

## CCOc1ccc(NC(=S)c2ccc(O)cc2O)cc1
[1]
  logD: 3.49

## Oc1ccc(C(=S)Nc2ccccc2F)c(O)c1
[1]
  logD: 3.36

## Oc1ccc(C(=S)Nc2cccc(F)c2)c(O)c1
[1]
  logD: 3.41

## Oc1ccc(C(=S)Nc2ccc(Cl)c(F)c2)c(O)c1
[1]
  logD: 4.43

## Oc1ccc(C(=S)Nc2cc(Cl)c(Cl)cc2Cl)c(O)c1
[1]
  logD: 4.92

## Oc1ccc(C(=S)Nc2cc(Cl)ccc2O)c(O)c1
[1]
  logD: 3.58

## Oc1ccc(C(=S)Nc2cccc(C(F)(F)F)c2)c(O)c1
[1]
  logD: 4.26

## Oc1ccc(C(=S)Nc2cccc(Cl)c2)c(O)c1
[1]
  logD: 3.9

## N#Cc1ccc(NC(=S)c2ccc(O)cc2O)cc1
[1]
  logD: 2.41

## CC(=O)c1cccc(NC(=S)c2ccc(O)cc2O)c1
[1]
  logD: 2.36

## Oc1ccc(C(=S)Nc2cccc(Cl)c2Cl)c(O)c1
[1]
  logD: 4.02

## Oc1ccc(C(=S)Nc2cccc(Br)c2)c(O)c1
[1]
  logD: 3.46

## COC(=O)c1ccccc1NC(=S)c1ccc(O)cc1O
[1]
  logD: 2.92

## CCOc1ccccc1NC(=S)c1ccc(O)cc1O
[1]
  logD: 3.8

## Oc1ccc(C(=S)Nc2ccc(F)cc2F)c(O)c1
[1]
  logD: 3.54

## Oc1ccc(C(=S)Nc2ccc(Br)cc2)c(O)c1
[1]
  logD: 4.02

## COc1cccc(NC(=S)c2ccc(O)cc2O)c1
[2]
  logD: 3.54

## Oc1ccc(C(=S)Nc2ccc(Cl)cc2Cl)c(O)c1
[1]
  logD: 4.26
